Values of other authors, collected in patent US20130344180A1, “WEIGHT LOSS AND SATIATION COMPOSITION” (YL HOLDINGS, INC., priority 2012, published 2013).

Tests used:
[1] = mice and rats
cellular metabolism = details: by increasing cellular metabolism
[2] = system: E1, E2, and E3 isozymes of retinaldehyde dehydrogenase (Raldh)
[3] = mice and rats; remark: listed apart in the source
prostate gland tumors = details: various strains of rats
[4] = system: adipocyte differentiation
[5] = in vivo
PPARγ = PPARγ (Homo sapiens, UniProt P37231)
[6] = system: fat cells in white adipose tissue; details: by increasing the expression of thermogenin

Chain of PPARγ (P37231 whole entry, species assumed): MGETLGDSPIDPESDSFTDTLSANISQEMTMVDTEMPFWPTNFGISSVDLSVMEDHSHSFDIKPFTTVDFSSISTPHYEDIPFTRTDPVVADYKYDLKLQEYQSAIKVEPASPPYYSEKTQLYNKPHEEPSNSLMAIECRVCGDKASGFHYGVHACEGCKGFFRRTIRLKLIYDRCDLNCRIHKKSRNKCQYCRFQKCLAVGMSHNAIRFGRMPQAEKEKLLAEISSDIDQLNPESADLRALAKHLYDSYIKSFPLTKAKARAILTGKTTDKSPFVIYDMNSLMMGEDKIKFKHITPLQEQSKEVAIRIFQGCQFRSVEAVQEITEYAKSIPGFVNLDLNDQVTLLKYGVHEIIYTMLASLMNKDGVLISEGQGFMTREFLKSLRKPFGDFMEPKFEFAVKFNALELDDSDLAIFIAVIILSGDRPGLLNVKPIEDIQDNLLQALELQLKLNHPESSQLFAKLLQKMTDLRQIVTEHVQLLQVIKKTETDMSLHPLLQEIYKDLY

CC(C)=CCCC(C)=CC=O [Citral, 3,7-dimethyl-2,6-octadienal]
carcinogenic potential [1]: does not possess carcinogenic potential
thermogenic response (cellular metabolism): provide thermogenic response
inhibition of E1, E2, and E3 isozymes of retinaldehyde dehydrogenase (Raldh) [2]: competitively inhibits
toxicity [3]: non-toxic
effect against prostate gland tumors (prostate gland tumors): effective

CCCC\C=C/C=C/C=C\CCCCCCCC(=O)O [punicic acid]
adipocyte differentiation [4]: suppression
high-fat-diet induced obesity and insulin resistance [5]: suppression
ligand of PPARγ (PPARγ): acts as a ligand

Fucoxanthin
fat burning within fat cells [6]: promote fat burning
